Test [1] deals with BaF3. The test can be described thus: Antiproliferative activity against mouse BaF3 cells harbouring ETV6-TRKA wildtype assessed as cell viability measured after 72 hrs by CCK-8 method. The following applies: BaF3, 72 h.
The subject of test [2] is BaF3. The experiment in a line: Antiproliferative activity against mouse BaF3 cells harbouring ETV6-TRKB wildtype assessed as cell viability measured after 72 hrs by CCK-8 method. The following applies: BaF3, 72 h.
The test system of test [3] is BaF3. The experiment in a line: cells. The following applies: Mus musculus, BaF3, 72 h.
Test [4] deals with BaF3. The experiment in a line: cells. Conditions: Mus musculus, BaF3, 72 h. The source holds these as a separate data set.
Test [5] has as its target High affinity nerve growth factor receptor (Homo sapiens, UniProt P04629). The test can be described thus: Inhibition of wild type TRKA (unknown origin) preincubated for 30 mins followed by ATP and U Light-poly GT addition and measured after 2 hrs by multilabel plate reader method.

pIC50: −log10 of the molar value.

High affinity nerve growth factor receptor, sequence (P04629 whole entry): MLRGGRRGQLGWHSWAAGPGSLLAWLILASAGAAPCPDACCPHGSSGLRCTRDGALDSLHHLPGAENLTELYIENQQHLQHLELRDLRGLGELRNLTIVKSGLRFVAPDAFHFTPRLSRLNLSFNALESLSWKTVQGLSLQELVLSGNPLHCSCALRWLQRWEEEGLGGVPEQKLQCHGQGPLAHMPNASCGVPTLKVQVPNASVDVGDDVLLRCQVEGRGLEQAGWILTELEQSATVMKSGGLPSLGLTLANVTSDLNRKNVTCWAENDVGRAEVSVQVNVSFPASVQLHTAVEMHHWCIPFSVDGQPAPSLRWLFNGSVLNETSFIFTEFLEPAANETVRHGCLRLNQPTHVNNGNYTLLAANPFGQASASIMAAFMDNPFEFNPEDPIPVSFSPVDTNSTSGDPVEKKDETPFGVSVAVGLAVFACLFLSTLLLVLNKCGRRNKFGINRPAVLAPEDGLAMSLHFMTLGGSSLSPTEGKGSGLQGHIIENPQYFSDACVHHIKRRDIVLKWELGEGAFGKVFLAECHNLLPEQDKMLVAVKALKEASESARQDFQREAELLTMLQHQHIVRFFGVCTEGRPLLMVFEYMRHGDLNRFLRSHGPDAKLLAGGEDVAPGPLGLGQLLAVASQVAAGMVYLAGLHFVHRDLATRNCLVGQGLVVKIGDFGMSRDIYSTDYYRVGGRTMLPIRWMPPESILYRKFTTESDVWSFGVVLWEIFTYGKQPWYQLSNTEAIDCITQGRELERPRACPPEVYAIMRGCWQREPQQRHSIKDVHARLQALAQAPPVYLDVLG

As for `O=C(Nc1cnn2ccc(N3CCC[C@@H]3c3cc(F)ccc3F)nc12)N1CC[C@H](O)C1` [LAROTRECTINIB], the negative-log IC50 (pIC50) in test [1] was 7.84; in test [2], 8.31; in test [3], 5.54; in test [4], 6.12.

Regarding `CN(C)C1CCN(c2ccc3c(Nc4n[nH]c5ccc(Cc6cc(F)cc(F)c6)cc45)ncnc3c2)C1` (stereo unspecified), the pIC50 in test [5] was 8.64.

In turn, `CN(C)C1CCN(c2ccc3c(Nc4n[nH]c5ccc(Cc6cc(F)cc(F)c6)cc45)n[nH]c3c2)C1` (stereo unspecified) gave a pIC50 in test [5] of 8.72.

One may read the pIC50 as the negative decadic logarithm of the IC50, by convention in mol/L.

(Values after ChEMBL document CHEMBL5550088, “Design, synthesis and evaluate of indazolylaminoquinazoline derivatives as potent Tropomyosin receptor kinase (TRK) inhibitors” (Bioorg Med Chem, 2024).)
